The values that follow come from patent US11420962B2, “Indene derivatives useful in treating pain and inflammation” (TARO PHARMACEUTICALS INC., priority 2018, dated 2022).

Where two headings read alike, the source gives them in different places.

The test system of series [1] is Rat DRG. Nature of the series: Rat dorsal root ganglion excitability response (EFS, Ca2+ transients). In kind it is cell-based. How it is done:
Dorsal root ganglions (DRGs) were dissected from adult rats. The tissue was processed, and cells were seeded into call culture plates (48 center wells of one quadrant in 384-well plates) and cultured for 2 days prior to Electrical field stimulation (EFS). To visualize the neuronal excitability response, intracellular Ca^+2 transients were monitored using the Ca^+2 indicator, Ca5. Ca5 was added to the cultures 1 h prior to EFS. Representative test compounds of the invention (i.e., test compounds) and reference compound, tetracaine, were added in concentration-response format encompassing six concentrations, performed in duplicate. The highest concentration tested was typically 30 μM with 1 in 3 dilutions generating the subsequent concentrations.
Effects on DRG excitability by the test compounds and standard were evaluated using four EFS protocols as disclosed in Table 2.
Experimental results were performed using two separate sets of plates using separate test compound and standard dilutions, to provide n=2. In the first set of experiments, compounds were added 24 h prior to EFS to increase the possibility to also detect more long-term compound effects. In the second set of experiments the compounds were added directly prior to EFS. Excitability response to EFS was analyzed as the average fluorescence ratio (peak/baseline) change per well. All plates were evaluated using high content imaging equipment post-EFS, imaging the Ca5 background staining to detect any possible compound-related toxic effects.
Average response by the standard compound, tetracaine, was 4.05 μM.

Series [2] can be described thus: Metabolism by human liver microsomes. In kind it is in vitro ADME. Conditions: in the presence of NADPH; for Scoring (% of drug remaining after 60 minutes, PDR60): Table 8, 10 µM, 1 mg/mL protein. How it is done: Representative compounds of the invention (i.e., test compounds) and the positive control, 7-ethoxycoumarin, were prepared as stock solutions at 10 mM in DMSO and eventually diluted to 10 μM in the test plate, with an appropriate amount of acetonitrle and tris HCl buffer. Final DMSO and acetonitrile concentrations were […] and 0.5% respectively. NADPH was prepared in tris HCl buffer to a stock of 10 mM. A frozen aliquot of live microsomes was retrieved from the freezer (−80° C.) and thawed by placing the tube on wet ice. After thawing, the tubes were gently mixed and the required amount, transferred to tris HCl buffer. Test compounds or positive control were pre-incubated, separately, for 10 minutes, with liver microsomes (1 mg/mL protein), at 37° C., in 100 mM Tris HCl at pH 7.5. After preincubation the reaction was started by adding 1 mM NADPH (pre-equilibrated to […]) and the reaction allowed to proceed for 60 minutes. At 60 minutes, a 50 μL aliquot was removed and quenched with 200 uL of acetonitrile containing a mixture of internal standards (Tolbutamide (500 ng/mL) and Telmistartan (500 ng/mL)) and vortexed then centrifuged at 4000 rmp for 10 minutes (Eppendorf 5810R). The supernatant was transferred to a 96 well plate for LC-MS/MS analysis.
An LC-MS/MS method was devised for the test compounds and the control, using a AB Sciex API 4000 system coupled to a NEXAR™ UHPLC (Shimadzu) system. Analytes were separated on a Phenomenex Kinetex C18 column (50×2.1 mm, 5 μm) using a gradient that was appropriate for each compound, at a flow rate of 1 ml/minute, utilizing a mobile phase of 0.1% formic acid in MILLI-Q™ water (A) and 0.1% formic acid in acetonitrile (B). The MS instrument was operated in positive mode (ESI+)/negative (ESI−). The multiple reaction monitoring (MRM) transition for test and control compounds was used for the LC-MS/MS analysis. MRM transitions for control compound 7-ethoxycoumarinm were Quadropole 1: 191.0, Quadropole 3: 163.0, dwell time: 75 msec, using curtain gas settings of 5 V, ion-spray voltage of 5500 V, temperature of 50° C. and gas settings for nebulizer and auxiliary set to 30 and 40 psi, respectively. The interface heater was kept on. Entrance potential and collision cell exit potential were varied to tune for a specific compound.
Using a suitable LC-MS/MS method, the percentage of drug remaining at 60 minutes ([…]) was assessed by comparing the average analyte to internal standard area ratio at 60 minutes to the average analyte to internal standard area ratio at 0 time control, as a percentage, from a 5 to 10 μL sample injection.
According to the above assay, the representative compounds listed in Table 8 below were active in the Human liver microsome assay at […] and the % of drug remaining after 60 minutes (PDR60), in the presence of NADPH, was assessed by LC-MS/MS. Average PDR60 for the standard compound, 7-ethoxycoumarin was <=65% in the presence of NADPH. Scoring for the test compounds, in the presence of NADPH, was as follows: “A” represents a PDR^60 of 81 to 100%, “B” represents a PDR^60 of 61 to 80%, “C” represents a PDR^60 of 31 to 60% and “D” represents a PDR^60 of 0 to 30%.
Background: Microsomes from liver hold many membrane-bound enzymes, among them those of drug oxidation.

Where [3] appears, read: Rattus norvegicus, Table 3, electrical field stimulation, Ca5 indicator, read-out: Scoring (EC50, Rat DRG excitability).

As to `C=C1CC[C@H]2[C@H](CN)[C@@H]([C@@]3(C)Cc4cnn(C5CCCCC5)c4C[C@@H]3CO)CC[C@]12C` [Ia-16, ((5R,6S)-5-((3aS,4R,5S,7aS)-4-(aminomethyl)-7a-methyl-1-methyleneoctahydro-1H-inden-5-yl)-1-cyclohexyl-5-methyl-4,5,6,7-tetrahydro-1H-indazol-6-yl)methanol], the EC50 in series [1] (setting [3]) lay in the range of 2 to 6 µM. For the same compound, the “Scoring (% of drug remaining after 60 minutes, PDR60)” value in series [2] is “B (a PDR^60 of 61 to 80%)”.

With `C=C1CC[C@H]2[C@H](CO)[C@@H]([C@@]3(C)Cc4cn[nH]c4C[C@@H]3CN)CC[C@]12C` [Ia-82, ((3aS,4R,5S,7aS)-5-((5R,6S)-6-(aminomethyl)-5-methyl-4,5,6,7-tetrahydro-1H-indazol-5-yl)-7a-methyl-1-methyleneoctahydro-1H-inden-4-yl)methanol], the EC50 in series [1] (setting [3]) lay within 6 to 15 µM. In series [2], the “Scoring (% of drug remaining after 60 minutes, PDR60)” value is given as “B (a PDR^60 of 61 to 80%)”. Turning to `CCOc1ccc2ccc(=O)oc2c1` [7-ethoxycoumarin, reference compound], in series [2], the “Average PDR60” value is “<= 65%”.

On to `C=C1CC[C@H]2[C@H](CN)[C@@H]([C@@]3(C)Cc4cn[nH]c4C[C@@H]3CN)CC[C@]12C` [Ia-58, ((3aS,4R,5S,7aS)-5-((5R,6S)-6-(aminomethyl)-5-methyl-4,5,6,7-tetrahydro-1H-indazol-5-yl)-7a-methyl-1-methyleneoctahydro-1H-inden-4-yl)methanamine], for which the “Scoring (% of drug remaining after 60 minutes, PDR60)” value in series [2] is “A (a PDR^60 of 81 to 100%)”. As to `CC(C)CCC[C@@H](C)[C@H]1CC[C@H]2[C@H](CN)[C@@H]([C@@]3(C)Cc4cn[nH]c4C[C@@H]3CN)CC[C@]12C` [Ia-57, ((1R,3aS,4S,5S,7aR)-5-((5R,6S)-6-(aminomethyl)-5-methyl-4,5,6,7-tetrahydro-1H-indazol-5-yl)-7a-methyl-1-((R)-6-methylheptan-2-yl)octahydro-1H-inden-4-yl)methanamine], the “Scoring (% of drug remaining after 60 minutes, PDR60)” value in series [2] is “A (a PDR^60 of 81 to 100%)”. Regarding `C=C1CC[C@H]2[C@H](CN)[C@@H]([C@@]3(C)Cc4cnc(N)nc4C[C@@H]3CO)CC[C@]12C` [Ic-1, ((6R,7S)-2-amino-6-((3aS,4R,5S,7aS)-4-(aminomethyl)-7a-methyl-1-methyleneoctahydro-1H-inden-5-yl)-6-methyl-5,6,7,8-tetrahydroquinazolin-7-yl)methanol], the EC50 in series [1] (setting [3]) is more than 15 µM. Besides, in series [2], the “Scoring (% of drug remaining after 60 minutes, PDR60)” value was “A (a PDR^60 of 81 to 100%)”. On to `C[C@H]1CC[C@H]2[C@H](CN)[C@@H]([C@@]3(C)Cc4cnn(-c5ccccc5)c4C[C@@H]3CO)CC[C@]12C` [Ia-35, ((5R,6S)-5-((1S,3aS,4S,5S,7aR)-4-(aminomethyl)-1,7a-dimethyloctahydro-1H-inden-5-yl)-5-methyl-1-phenyl-4,5,6,7-tetrahydro-1H-indazol-6-yl)methanol], for which, in series [1] (setting [3]), the EC50 was less than 2 µM. For `C=C1CC[C@H]2[C@H](CN)[C@@H]([C@@]3(C)Cc4cnn(-c5cccnc5)c4C[C@@H]3CO)CC[C@]12C` [Ia-20, ((5R,6S)-5-((3aS,4R,5S,7aS)-4-(aminomethyl)-7a-methyl-1-methyleneoctahydro-1H-inden-5-yl)-5-methyl-1-(pyridin-3-yl)-4,5,6,7-tetrahydro-1H-indazol-6-yl)methanol], in series [1] (setting [3]), the EC50 lay within 6 to 15 µM. Also, in series [2], the “Scoring (% of drug remaining after 60 minutes, PDR60)” value is “D (a PDR^60 of 0 to 30%)”. With `C[C@H]1CC[C@H]2[C@H](CN)[C@@H]([C@@]3(C)Cc4cnn(C(C)(C)C)c4C[C@@H]3CO)CC[C@]12C` [Ia-40, ((5R,6S)-5-((1S,3aS,4S,5S,7aR)-4-(aminomethyl)-1,7a-dimethyloctahydro-1H-inden-5-yl)-1-(tert-butyl)-5-methyl-4,5,6,7-tetrahydro-1H-indazol-6-yl)methanol], the EC50 in series [1] (setting [3]) was in the range of 2 to 6 µM.

Turning to `C[C@H]1CC[C@H]2[C@H](CN)[C@@H]([C@@]3(C)Cc4cnn(-c5ccccn5)c4C[C@@H]3CO)CC[C@]12C` [Ia-42, ((5R,6S)-5-((1S,3aS,4S,5S,7aR)-4-(aminomethyl)-1,7a-dimethyloctahydro-1H-inden-5-yl)-5-methyl-1-(pyridin-2-yl)-4,5,6,7-tetrahydro-1H-indazol-6-yl)methanol], the EC50 in series [1] (setting [3]) is less than 2 µM. `C[C@H]1CC[C@H]2[C@H](CN)[C@@H]([C@@]3(C)Cc4cnn(C5CCCCC5)c4C[C@@H]3CO)CC[C@]12C` [Ia-37, ((5R,6S)-5-((1S,3aS,4S,5S,7aR)-4-(aminomethyl)-1,7a-dimethyloctahydro-1H-inden-5-yl)-1-cyclohexyl-5-methyl-4,5,6,7-tetrahydro-1H-indazol-6-yl)methanol]: in series [1] (setting [3]), the EC50 is less than 2 µM. As to `C[C@H]1CC[C@H]2[C@H](CO)[C@@H]([C@@]3(C)Cc4cn[nH]c4C[C@@H]3CO)CC[C@]12C` [Ia-5, ((5R,6S)-5-((1S,3aS,4S,5S,7aR)-4-(hydroxymethyl)-1,7a-dimethyloctahydro-1H-inden-5-yl)-5-methyl-4,5,6,7-tetrahydro-1H-indazol-6-yl)methanol], the “Scoring (% of drug remaining after 60 minutes, PDR60)” value in series [2] is reported as “D (a PDR^60 of 0 to 30%)”. As for `C[C@]1([C@H]2CC[C@]3(C)C=CC[C@H]3[C@@H]2CN)Cc2cn[nH]c2C[C@@H]1CO` [Ia-28, ((5R,6S)-5-((3aR,6S,7R,7aS)-7-(aminomethyl)-3a-methyl-3a,4,5,6,7,7a-hexahydro-1H-inden-6-yl)-5-methyl-4,5,6,7-tetrahydro-1H-indazol-6-yl)methanol], the “Scoring (% of drug remaining after 60 minutes, PDR60)” value in series [2] is reported as “A (a PDR^60 of 81 to 100%)”. As for `C=C1CC[C@H]2[C@H](CN)[C@@H]([C@@]3(C)Cc4cn(CC(C)(C)C)nc4C[C@@H]3CO)CC[C@]12C` [Ia-23, ((5R,6S)-5-((3aS,4R,5S,7aS)-4-(aminomethyl)-7a-methyl-1-methyleneoctahydro-1H-inden-5-yl)-5-methyl-2-neopentyl-4,5,6,7-tetrahydro-2H-indazol-6-yl)methanol], the EC50 in series [1] (setting [3]) was in the range of 2 to 6 µM.

Turning to `CCCCNc1ccc(C(=O)OCCN(C)C)cc1` [tetracaine, reference compound], in series [1] (Rat DRG excitability, read-out: Average response by the standard compound), the EC50 was 4.05 µM. In the case of `C[C@H]1CC[C@H]2[C@H](CN)[C@@H]([C@@]3(C)Cc4cn(-c5ccccn5)nc4C[C@@H]3CO)CC[C@]12C` [Ia-43, ((5R,6S)-5-((1S,3aS,4S,5S,7aR)-4-(aminomethyl)-1,7a-dimethyloctahydro-1H-inden-5-yl)-5-methyl-2-(pyridin-2-yl)-4,5,6,7-tetrahydro-2H-indazol-6-yl)methanol], the EC50 in series [1] (setting [3]) is less than 2 µM. For `C[C@H]1CC[C@H]2[C@H](CN)[C@@H]([C@@]3(C)Cc4cnn(CC(C)(C)C)c4C[C@@H]3CO)CC[C@]12C` [Ia-38, ((5R,6S)-5-((1S,3aS,4S,5S,7aR)-4-(aminomethyl)-1,7a-dimethyloctahydro-1H-inden-5-yl)-5-methyl-1-neopentyl-4,5,6,7-tetrahydro-1H-indazol-6-yl)methanol], the EC50 in series [1] (setting [3]) is less than 2 µM.
